# According to patent US11904051B2, “Shear stress sensitive liposomes” (Universität Basel, priority 2018, dated 2024):
# Experiment: Spatially resolved SAXS of liposomes under dynamic (flow/shear) condition in microfluidic device
# Assay type: physicochemical
# Procedure: The measurement in glass capillaries provided the fingerprint of Pad-PC-Pad liposome structure in static condition. In order to investigate the behavior of Pad-PC-Pad liposomes under an external perturbation, such as a shear stress gradient, 2D raster SAXS scans of Pad-PC-Pad liposomes under flow conditions, produced in a microfluidic device, were recorded. Three flow velocities v were tested: v=0.002; 0.02; and 0.2 μL/s. The corresponding shear rates were determined using Eq. 1. From the lowest to the highest flow rate, the shear rates in the constriction (h=250 μm, w=125 μm) were=1.54, 15.4, and 154.0 s^−1, whereas in the wide region (h=250 μm, w=1000 μm) they corresponded to =0.2 s^−1, 2.0 s^−1, and 20.0 s^−1 2 D maps of the mean scattering intensity in the range Δq=0:096 to 0:102 nm^−1 corresponding to a real space range Δd=65.4 to 61.6 nm between the overall size and the size of the phospholipid head-to-head distance are shown in FIG. 12.
# The local modifications of the averaged scattering intensity distribution observed in the 2D scanning SAXS maps of FIG. 12 supported the selection of seven regions of the micro fluidic device, as shown in the sketch of FIG. 13. Three regions were selected before the constriction: one far (#1), one approaching (#2), and one very close (A); symmetrically, on the outlet side, three areas were chosen one very close (B), one close (#4), and one far from the constriction (#5). Region #3 was selected in the constriction avoiding the edges of the device. For each region, the radially integrated scattering intensity I as a function of the scattering vector q at each flow rate v is shown.
# The spatially resolved SAXS measurements were performed at the cSAXS beamline at the Swiss Light Source (PSI, Villigen, Switzerland). The X-ray beam was focused to 25 μm×50 μm (vertical×horizontal) spot size at the specimen location, the photon energy was set to 11:2 keV (λ=1:1 Å), and the sample-detector distance to 7:102 m, determined by the first scattering order of a silver behenate specimen. The scattering signal was recorded using the Pilatus 2M detector (Kraftet al., J. Synchrotron Radiat. 2009, 16, 368-375) (pixel size: 172 μm_×172 μm). Dynamic spatially resolved SAXS measurements of the liposomal suspensions were performed using microfluidic devices mounted on an aluminum/polyetheretherketone/aluminum sample holder. Two-dimensional (2D) scans were realized line-by-line by continuously moving the device in horizontal direction, while the detector recorded the data in burst mode. 48 (v)×96 (h) points at step size 25 μm (v)×50 μm (h) were acquired in a pre-selected region of the microfluidic device with an exposure time of 1:5 s per point. The data were processed using the Matlab package available from the beamline (https://www.psi.ch/sls/csaxs/software). During the experiment, the flow rates were adjusted using a syringe pump system (Nemesys, Cetoni GmbH, Korbussen, Germany) connected to the microchannel using polytetrafluoroethylene (PTFE) tubing. For the point-wise background correction, the scattering signal of ultra-pure water in the microfluidic device for all the measured flow rates was recorded before the acquisition of the SAXS signal of the liposomal suspensions. For the microfluidic device with a rectangular channel cross-section, the wall shear rates were calculated from the volumetric flow rates v using the following equation: (Molloy et al., Journal of Thrombosis and Haemostasis 2016, 15, 972-982) λ=6v=h^2w (1) with the shear rate [s^−1], v the volumetric flow rate [μL/s], and w and h the width and height [μm] of the channel, respectively.
# [1] = flow rate 0.002 pL/s, position #1
# [2] = flow rate 0.002 pL/s, position #2
# [3] = flow rate 0.002 pL/s, position #3 (constriction)
# [4] = flow rate 0.002 pL/s, position #4
# [5] = flow rate 0.002 pL/s, position #5
# [6] = flow rate 0.002 pL/s, position A
# [7] = flow rate 0.002 pL/s, position B
# [8] = flow rate 0.02 pL/s, position #1
# [9] = flow rate 0.02 pL/s, position #2
# [10] = flow rate 0.02 pL/s, position #3 (constriction)
# [11] = flow rate 0.02 pL/s, position #4
# [12] = flow rate 0.02 pL/s, position #5
# [13] = flow rate 0.02 pL/s, position A
# [14] = flow rate 0.02 pL/s, position B
# [15] = flow rate 0.20 pL/s, position #1
# [16] = flow rate 0.20 pL/s, position #2
# [17] = flow rate 0.20 pL/s, position #3 (constriction)
# [18] = flow rate 0.20 pL/s, position #4
# [19] = flow rate 0.20 pL/s, position #5
# [20] = flow rate 0.20 pL/s, position A
# [21] = flow rate 0.20 pL/s, position B
smiles,measurement,setting,value
"CCCCCCCCCCCCCCCC(=O)NCC(CNC(=O)CCCCCCCCCCCCCCC)OP(=O)([O-])OCC[N+](C)(C)C [Pad-PC-Pad, 1,3-palmitoylamido-1,3-deoxy-sn-glycero-2-phosphatidylcholine]",Radius of gyration Rg,[1],59.5 ± 0.2 nm
same,head-to-head distance dhh,[1],3.4 ± 0.7 nm
same,Radius of gyration Rg,[2],59.1 ± 0.1 nm
same,head-to-head distance dhh,[2],3.1 ± 0.4 nm
same,Radius of gyration Rg,[3],63.0 ± 0.5 nm
same,head-to-head distance dhh,[3],3.9 ± 0.7 nm
same,Radius of gyration Rg,[4],61.1 ± 0.2 nm
same,head-to-head distance dhh,[4],3.9 ± 0.4 nm
same,Radius of gyration Rg,[5],61.6 ± 0.2 nm
same,head-to-head distance dhh,[5],3.8 ± 0.3 nm
same,Radius of gyration Rg,[6],60.3 ± 0.4 nm
same,head-to-head distance dhh,[6],3.4 ± 0.5 nm
same,Radius of gyration Rg,[7],59.3 ± 0.9 nm
same,head-to-head distance dhh,[7],4.0 ± 0.6 nm
same,Radius of gyration Rg,[8],60.2 ± 0.2 nm
same,head-to-head distance dhh,[8],3.4 ± 0.7 nm
same,Radius of gyration Rg,[9],58.0 ± 0.4 nm
same,head-to-head distance dhh,[9],2.9 ± 0.2 nm
same,Radius of gyration Rg,[10],64.3 ± 0.6 nm
same,head-to-head distance dhh,[10],3.5 ± 0.6 nm
same,Radius of gyration Rg,[11],59.1 ± 0.3 nm
same,head-to-head distance dhh,[11],3.6 ± 0.3 nm
same,Radius of gyration Rg,[12],61.3 ± 0.1 nm
same,head-to-head distance dhh,[12],3.9 ± 0.4 nm
same,Radius of gyration Rg,[13],55.1 ± 0.5 nm
same,head-to-head distance dhh,[13],2.9 ± 0.2 nm
same,Radius of gyration Rg,[14],52.4 ± 0.8 nm
same,head-to-head distance dhh,[14],4.3 ± 0.5 nm
same,Radius of gyration Rg,[15],61.6 ± 0.4 nm
same,head-to-head distance dhh,[15],3.4 ± 0.9 nm
same,Radius of gyration Rg,[16],61.0 ± 0.5 nm
same,head-to-head distance dhh,[16],3.4 ± 0.7 nm
same,Radius of gyration Rg,[17],64.0 ± 0.8 nm
same,head-to-head distance dhh,[17],3.8 ± 0.8 nm
same,Radius of gyration Rg,[18],58.0 ± 0.3 nm
same,head-to-head distance dhh,[18],4.0 ± 0.6 nm
same,Radius of gyration Rg,[19],60.0 ± 0.4 nm
same,head-to-head distance dhh,[19],4.0 ± 0.7 nm
same,Radius of gyration Rg,[20],61.4 ± 0.6 nm
same,head-to-head distance dhh,[20],3.2 ± 0.6 nm
same,Radius of gyration Rg,[21],52.3 ± 0.9 nm
same,head-to-head distance dhh,[21],4.4 ± 0.4 nm
